Source: patent publication US9433621B2, “Substituted pyridine and pyrimidine derivatives and their use in treating viral infections” (Merck Sharp & Dohme Corp., priority 2010, dated 2016)

System: HCV replicon
Test: Cell-Based HCV Replicon Assay
Conditions: Hepatitis C virus, 72 h; Table IV; replicon cells, day 3, real time PCR; EC90 = concentration for ΔCT=3.2 over baseline; read-out: EC90
Procedure, shortened: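 Replicon cells, 5000/well, treated 3 days with 10 serial 2-fold dilutions (top 25 μM to 1 μM) in 0.5% DMSO, 10% FBS. Replicon RNA measured by multiplex Taqman RT-PCR (NS5B amplicon, GAPDH control); EC50/EC90 = concentration giving ΔCT of 1/3.2 over baseline from sigmoid fit.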

Point of comparison: `CCNC(=O)C(O)[C@H]1C[C@@H](Nc2nc(N[C@H](C)COCC)nc(C)c2-c2nc3c(C)nccc3s2)[C@H](O)[C@@H]1O` (some centres unmarked) [Example 4025], EC90 0.008 µM. Against it:
- Cc1nc(NCc2c(F)cc(F)cc2F)nc(N[C@@H]2C[C@H](C(C)(C)O)[C@@H](O)[C@H]2O)c1-c1nc2c(C)nccc2s1 [Example 3188] — 2.6-fold higher, 0.021 µM

Same assay, conditions: Hepatitis C virus, 72 h; Table V, class codes; replicon cells, day 3, real time PCR; EC90 = concentration for ΔCT=3.2 over baseline; read-out: EC90 (uM) range

`Cc1nc(NCC2CC2)nc(N[C@@H]2C[C@H](C(=O)Nc3ccncc3)[C@@H](O)[C@H]2O)c1-c1nc2c(C3CC3)nccc2s1` [Example 4957] and `COCCNc1nc(C)c(-c2nc3c(C4CC4)nccc3s2)c(N[C@@H]2C[C@H](C(=O)Nc3ccccc3)[C@@H](O)[C@H]2O)n1` [Example 4949] cannot be ordered by EC90: < 0.5 µM for the first, < 0.5 µM for the second.

First: Cc1nccc2sc(-c3cnc(N)nc3N[C@@H]3C[C@H](C(C)(C)O)[C@@H](O)[C@H]3O)nc12 [Example 4937]
Second: CS(=O)(=O)C[C@H]1C[C@@H](Nc2nc(NCC3CC3)ncc2-c2nc3c(C4CC4)nccc3s2)[C@H](O)[C@@H]1O [Example 4920]
The EC90 of the first is higher: 0.5 to 5 µM for the first, < 0.5 µM for the second.

`Cc1nc(N[C@H](C)c2ccc(F)cc2)nc(N[C@@H]2C[C@H](CO)[C@@H](O)[C@H]2O)c1-c1nc2c(C3CC3)nccc2s1` [Example 4932] and `Cc1nc(N[C@H](C)c2ccc(OC(F)(F)F)cc2)nc(N[C@@H]2C[C@H](CO)[C@@H](O)[C@H]2O)c1-c1nc2cnc(C3CC3)cc2s1` [Example 4944] cannot be ordered by EC90: < 0.5 µM for the first, < 0.5 µM for the second.

`CO[C@H](C)CNc1nc(C)c(-c2nc3cnc(C)cc3s2)c(N[C@@H]2C[C@H](CO)[C@@H](O)[C@H]2O)n1` [Example 4953] and `Cc1nc(NCC2CC2)nc(N[C@@H]2C[C@H](C(=O)N3CCOCC3)[C@@H](O)[C@H]2O)c1-c1nc2c(C3CC3)nccc2s1` [Example 4924] cannot be ordered by EC90: < 0.5 µM for the first, < 0.5 µM for the second.

Same assay, conditions: Hepatitis C virus; HCV Replicon assay, EC90 range, Table VI; read-out: EC90

`Cc1nc(NCC(F)(F)C(F)(F)F)nc(N[C@H]2CC[C@@H](CO)C2)c1-c1nc2c(C)nccc2s1` [Example 5168] and `Cc1nc(NCC(F)(F)C(F)(F)F)nc(N[C@H]2C=C[C@@H](CO)C2)c1-c1nc2c(C)nccc2s1` [Example 5165] cannot be ordered by EC90: < 0.5 µM for the first, < 0.5 µM for the second.

`CCO[C@H]1C[C@@H](CNc2nc(C)c(-c3nc4c(C5CC5)nccc4s3)c(N[C@@H]3C[C@H](CO)[C@@H](O)[C@H]3O)n2)C1` [Example 5293] and `Cc1nc(NCC2CC(C)C2)nc(N[C@@H]2C[C@H](CO)[C@@H](O)[C@H]2O)c1-c1nc2c(C3CC3)nccc2s1` (some centres unmarked) [Example 5294] cannot be ordered by EC90: < 0.5 µM for the first, < 0.5 µM for the second.

`CO[C@H](C)CNc1nc(C)c(-c2nc3c(C4CC4)nccc3s2)c(N[C@@H]2C[C@H](C(N)=O)[C@@H](O)[C@H]2O)n1` [Example 5086] and `Cc1nc(NCC(C)C)nc(N[C@@H]2C[C@H](C(F)F)[C@@H](O)[C@H]2O)c1-c1nc2c(C3CC3)nccc2s1` [Example 5180] cannot be ordered by EC90: < 0.5 µM for the first, < 0.5 µM for the second.

`Cc1nc(NCC2CC2)nc(N[C@@H]2C[C@H](NC(=O)N(C)C)[C@@H](O)[C@H]2O)c1-c1nc2c(C3CC3)nccc2s1` [Example 5098] and `Cc1nc(NCC2CCC2)nc(N[C@@H]2C[C@H](C(C)(F)F)[C@@H](O)[C@H]2O)c1-c1nc2c(C3CC3)nccc2s1` [Example 5183] cannot be ordered by EC90: < 0.5 µM for the first, < 0.5 µM for the second.

`Cc1nc(NCC(C)(C)C)nc(N[C@@H]2C[C@H](C(C)(C)NS(C)(=O)=O)[C@@H](O)[C@H]2O)c1-c1nc2c(C)nccc2s1` [Example 5045] and `COC(=O)NC(C)(C)[C@H]1C[C@@H](Nc2nc(NCC(C)(C)C)nc(C)c2-c2nc3c(C)nccc3s2)[C@H](O)[C@@H]1O` [Example 5047] cannot be ordered by EC90: < 0.5 µM for the first, < 0.5 µM for the second.

`CO[C@H]1CCCC[C@@H]1Nc1nc(C)c(-c2nc3c(C4CC4)nccc3s2)c(N[C@@H]2C[C@H](CO)[C@@H](O)[C@H]2O)n1` [Example 5138] and `CO[C@H]1CCCC[C@@H]1Nc1nc(C)c(-c2nc3c(C)nccc3s2)c(N[C@@H]2C[C@H](CO)[C@@H](O)[C@H]2O)n1` [Example 5136] cannot be ordered by EC90: < 0.5 µM for the first, < 0.5 µM for the second.

`COC[C@@H](C)Nc1nc(C)c(-c2nc3c(C)nccc3s2)c(N[C@@H]2C[C@H](C(O)(COC)COC)[C@@H](O)[C@H]2O)n1` [Example 5244] and `CCSC[C@@H](C)Nc1nc(C)c(-c2nc3c(C)nccc3s2)c(N[C@@H]2C[C@H](C(C)(C)O)[C@@H](O)[C@H]2O)n1` [Example 5253] cannot be ordered by EC90: < 0.5 µM for the first, < 0.5 µM for the second.

`Cc1nc(NCC2CC2)nc(N[C@@H]2C[C@H](C(C)(C)NS(C)(=O)=O)[C@@H](O)[C@H]2O)c1-c1nc2c(C)nccc2s1` [Example 5044] and `Cc1nc(NCCS(=O)(=O)N(C)C)nc(N[C@@H]2C[C@H](C(C)(C)O)[C@@H](O)[C@H]2O)c1-c1nc2c(C)nccc2s1` [Example 5288] cannot be ordered by EC90: < 0.5 µM for the first, < 0.5 µM for the second.

`Cc1nc(NCC(F)(F)F)nc(N[C@@H]2C[C@H](C(C)(C)S(C)(=O)=O)[C@@H](O)[C@H]2O)c1-c1nc2c(C3CC3)nccc2s1` [Example 5079] and `Cc1nc(NCC(F)(F)C(F)(F)F)nc(N[C@@H]2C[C@H](CO)[C@@H](O)[C@H]2O)c1-c1nc2c(C3CC3)nccc2s1` [Example 5224] cannot be ordered by EC90: < 0.5 µM for the first, < 0.5 µM for the second.

`CCO[C@@H](CNc1nc(C)c(-c2nc3c(C)nccc3s2)c(N[C@@H]2C[C@H](CO)[C@@H](O)[C@H]2O)n1)C(F)(F)F` [Example 5233] and `CO[C@H]1CCC[C@@H]1Nc1nc(C)c(-c2nc3c(C)nccc3s2)c(N[C@@H]2C[C@H](CO)[C@@H](O)[C@H]2O)n1` [Example 5146] cannot be ordered by EC90: < 0.5 µM for the first, < 0.5 µM for the second.

`CCCNC(=O)N[C@H]1C[C@@H](Nc2nc(NCc3c(F)cccc3F)nc(C)c2-c2nc3c(C4CC4)nccc3s2)[C@H](O)[C@@H]1O` [Example 5085] and `CCCNc1nc(C)c(-c2nc3c(C4CC4)nccc3s2)c(N[C@@H]2C[C@H](C(F)F)[C@@H](O)[C@H]2O)n1` [Example 5179] cannot be ordered by EC90: < 0.5 µM for the first, < 0.5 µM for the second.

`COC(C)(C)[C@H]1C[C@@H](Nc2nc(N)nc(C)c2-c2nc3c(C)nccc3s2)[C@H](O)[C@@H]1O` [Example 5279] and `Cc1nc(N)nc(N[C@@H]2C[C@H](C(C)(C)S(C)(=O)=O)[C@@H](O)[C@H]2O)c1-c1nc2c(C)nccc2s1` [Example 5069] cannot be ordered by EC90: < 0.5 µM for the first, < 0.5 µM for the second.

`COC(C)(C)[C@H]1C[C@@H](Nc2nc(NCc3c(F)cc(F)cc3F)nc(C)c2-c2nc3c(C)nccc3s2)[C@H](O)[C@@H]1O` [Example 5277] and `CO[C@@H]1CCC[C@@H]1Nc1nc(C)c(-c2nc3c(C)nccc3s2)c(N[C@@H]2C[C@H](C(C)(C)Cl)[C@@H](O)[C@H]2O)n1` [Example 5145] cannot be ordered by EC90: < 0.5 µM for the first, < 0.5 µM for the second.

`Cc1nc(NC(C)(C)C)nc(N[C@@H]2C[C@H](NC(=O)NC(C)(C)C)[C@@H](O)[C@H]2O)c1-c1nc2c(C3CC3)nccc2s1` [Example 5091] and `Cc1nc(NC2CC2)nc(N[C@@H]2C[C@H](C(C)(F)F)[C@@H](O)[C@H]2O)c1-c1nc2c(C3CC3)nccc2s1` [Example 5173] cannot be ordered by EC90: < 0.5 µM for the first, < 0.5 µM for the second.

`Cc1nc(N)nc(N[C@H]2CCC[C@@H]2O)c1-c1nc2c(C)nccc2s1` [Example 5151] and `Cc1nc(N[C@H]2CCC[C@H]2O)nc(N[C@@H]2C[C@H](CO)[C@@H](O)[C@H]2O)c1-c1nc2c(C)nccc2s1` [Example 5149] cannot be ordered by EC90: < 0.5 µM for the first, < 0.5 µM for the second.

`Cc1nc(N[C@H](C)c2c(F)c(F)c(C)c(F)c2F)nc(N[C@@H]2C[C@H](CS(C)(=O)=O)[C@@H](O)[C@H]2O)c1-c1nc2c(C3CC3)nccc2s1` [Example 5205] and `CO[C@H]1C[C@@H]([C@@H](C)Nc2nc(C)c(-c3nc4c(C5CC5)nccc4s3)c(N[C@@H]3C[C@H](CO)[C@@H](O)[C@H]3O)n2)C1` [Example 5299] cannot be ordered by EC90: < 0.5 µM for the first, < 0.5 µM for the second.

`Cc1nc(NCC(F)(F)C(F)(F)C(F)(F)F)nc(N[C@@H]2C[C@H](C(C)(C)O)[C@@H](O)[C@H]2O)c1-c1nc2c(N)nccc2s1` [Example 5210] and `Cc1nc(NCC(F)(F)C(F)(F)F)nc(N[C@@H]2C[C@H](COc3c(F)cccc3F)[C@@H](O)[C@H]2O)c1-c1nc2c(C)nccc2s1` [Example 5213] cannot be ordered by EC90: < 0.5 µM for the first, < 0.5 µM for the second.

First: COc1nc(C)c(-c2nc3c(C4CC4)nccc3s2)c(N[C@@H]2C[C@H](C(C)(F)F)[C@@H](O)[C@H]2O)n1 [Example 5187]
Second: Cc1nc(N[C@H](C)C2CC2)nc(N[C@@H]2C[C@H](C(C)(F)F)[C@@H](O)[C@H]2O)c1-c1nc2c(C3CC3)nccc2s1 [Example 5172]
The EC90 of the first is higher: 5 to 25 µM for the first, < 0.5 µM for the second.

`Cc1nc(NCC2CC(F)(F)C2)nc(N[C@@H]2C[C@H](CC(C)(C)O)[C@@H](O)[C@H]2O)c1-c1nc2c(C)nccc2s1` [Example 5312] and `Cc1nc(NCC2CC(F)(F)C2)nc(N[C@@H]2C[C@H](CO)C(O)[C@H]2O)c1-c1nc2c(C3CC3)nccc2s1` (some centres unmarked) [Example 5297] cannot be ordered by EC90: < 0.5 µM for the first, < 0.5 µM for the second.

`COCCNc1nc(C)c(-c2nc3c(C)nccc3s2)c(N[C@@H]2C[C@H](CS(=O)(=O)c3ccc(F)c(C)c3)[C@@H](O)[C@H]2O)n1` [Example 5011] and `CCc1nccc2sc(-c3c(C)nc(NCC(C)(C)C)nc3N[C@@H]3C[C@H](CS(=O)(=O)c4ccc(F)c(C)c4)[C@@H](O)[C@H]3O)nc12` [Example 5018] cannot be ordered by EC90: < 0.5 µM for the first, < 0.5 µM for the second.

`Cc1nc(N)nc(NC2(CO)CCCC2)c1-c1nc2c(C3CC3)nccc2s1` [Example 5124] and `CSCCNc1nc(C)c(-c2nc3c(C4CC4)nccc3s2)c(N[C@@H]2C[C@H](C(F)F)[C@@H](O)[C@H]2O)n1` [Example 5194] cannot be ordered by EC90: < 0.5 µM for the first, < 0.5 µM for the second.

`Cc1nc(NCC(C)(C)C)nc(N[C@@H]2C[C@H](C(C)(C)S(=O)(=O)c3ccccc3)[C@@H](O)[C@H]2O)c1-c1nc2c(C)nccc2s1` [Example 5068] and `COCCNc1nc(C)c(-c2nc3c(C)nccc3s2)c(N[C@@H]2C[C@H](C(C)(C)S(=O)(=O)c3ccccc3)[C@@H](O)[C@H]2O)n1` [Example 5077] cannot be ordered by EC90: < 0.5 µM for the first, < 0.5 µM for the second.

Compared with `CCC(O)(CC)[C@H]1C[C@@H](Nc2nc(NCCC3CC3)nc(C)c2-c2nc3c(C)nccc3s2)[C@H](O)[C@@H]1O` [Example 5269], `CCCCCNc1nc(C)c(-c2nc3c(C)nccc3s2)c(N[C@@H]2C[C@H](C(O)(CC)CC)[C@@H](O)[C@H]2O)n1` [Example 5272] is lower in EC90: 0.5 to 5 µM for the first, < 0.5 µM for the second.
